The results in this text go back to patent US10219516B2, “Molecules having pesticidal utility, and intermediates, compositions, and processes, related thereto” (priority 2015, dated 2019).

Holding throughout (assay type): in vivo
Assay [1] has as its system Beet Armyworm (Spodoptera exigua, LAPHEG). As to the kind of experiment: Bioassay on Beet Armyworm (BAW), 128-well diet tray assay. In a few lines: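 Percent mortality, averaged across eight replicate wells, was scored after five to seven days at 25° C. under a 14:10 light-dark cycle. Each well's diet carried 50 μg/cm^2 of the dried test molecule and held one to five second instar larvae.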

Assay [2] relates to Cabbage Looper (Trichoplusia ni, TRIPNI). As to the kind of experiment: Bioassay on Cabbage Looper (CL), 128-well diet tray assay. The conditions noted are these: Trichoplusia ni. In a few lines: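 Second-instar larvae, one to five per well, were placed on artificial diet surface-treated with 50 μg/cm^2 test molecule applied in 90:10 acetone-water and dried, eight wells per molecule. Trays were covered, vented and held at 25° C., 14:10 light-dark for five to seven days; percent mortality per well was averaged.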

In assay [3] the test system is Yellow Fever Mosquito (Aedes aegypti, AEDSAE). As to the kind of experiment: Bioassay on Yellow Fever Mosquito (YFM), 96-well plate larval assay. The conditions noted are these: for YFM (Biological Results, rating): Species YFM (Yellow Fever Mosquito); for YFM rating: Yellow Fever Mosquito, 96-well plate larval assay. On the procedure:
Certain molecules disclosed in this document were tested against YFM using procedures described in the following paragraph. In the reporting of the results, the “GPA & YFM Rating Table” was used (See Table Section).
Master plates containing 400 μg of a molecule dissolved in 100 μL of dimethyl sulfoxide (DMSO) (equivalent to a 4000 ppm solution) are used. A master plate of assembled molecules contains 15 μL per well. To this plate, 135 μL of a 90:10 water/acetone mixture is added to each well. A robot is programmed to dispense 15 μL aspirations from the master plate into an empty 96-well shallow plate (“daughter” plate). There are 6 reps (“daughter” plates) created per master. The created “daughter” plates are then immediately infested with YFM larvae.
The day before plates are to be treated, mosquito eggs are placed in Millipore water containing liver powder to begin hatching (4 g. into 400 mL). After the “daughter” plates are created using the robot, they are infested with 220 μL of the liver powder/larval mosquito mixture (about 1 day-old larvae). After plates are infested with mosquito larvae, a non-evaporative lid is used to cover the plate to reduce drying. Plates are held at room temperature for 3 days prior to grading. After 3 days, each well is observed and scored based on mortality. The results are indicated in the table entitled “Table ABC: Biological Results” (See Table Section).

The mark [4] stands for this setting: Species BAW (Beet Armyworm), read-out: BAW (Biological Results, rating).
Where [5] appears, read: Species CL (Cabbage Looper), read-out: CL (Biological Results, rating).
The mark [6] stands for this setting: Beet Armyworm, 128-well diet tray assay, read-out: BAW rating.
The mark [7] stands for this setting: Cabbage Looper, 128-well diet tray assay, read-out: CL rating.

Like-named read-outs stand apart in the source and are kept apart here.

As to `CNc1ccc(NC(=O)c2cc(NC(=O)[C@H]3[C@H](c4cc(Cl)cc(Cl)c4)C3(Cl)Cl)ccc2Cl)c(C#N)c1` (relative stereo) [F237, trans-2-chloro-N-(2-cyano-4-(methylamino)phenyl)-5-(2,2-dichloro-3-(3,5-dichlorophenyl)cyclopropane-1-carboxamido)benzamide], the pest or weed control at 50 µg/cm2 in assay [1] (setting [4]) and in assay [2] (setting [5]) was 50 to 100% each time. For the same compound, the “YFM (Biological Results, rating)” value in assay [3] is reported as “A (80-100)”.

Regarding `O=C(Nc1cccc(F)n1)c1cc(NC(=O)[C@H]2[C@H](c3cc(Cl)cc(Cl)c3)C2(Cl)Cl)ccc1Cl` (relative stereo) [F240, trans-2-Chloro-5-(2,2-dichloro-3-(3,5-dichlorophenyl)cyclopropane-1-carboxamido)-N-(6-fluoropyridin-2-yl)benzamide], the pest or weed control at 50 µg/cm2 in assay [1] (setting [4]) and in assay [2] (setting [5]) was 50 to 100% in each case. Moreover, the “YFM (Biological Results, rating)” value in assay [3] is “A (80-100)”.

On to `N#Cc1cc(F)ccc1NC(=O)c1cccc(NC(=O)[C@H]2[C@H](c3cc(Cl)cc(Cl)c3)C2(Cl)Cl)c1` (relative stereo) [F271, trans-N-(2-Cyano-4-fluorophenyl)-3-(2,2-dichloro-3-(3,5-dichlorophenyl)cyclopropane-1-carboxamido)benzamide], for which the pest or weed control at 50 µg/cm2 in assay [1] (setting [4]) and in assay [2] (setting [5]) was 50 to 100% throughout. Further, in assay [3], the “YFM (Biological Results, rating)” value was “A (80-100)”.

Regarding `O=C(Nc1ccc(F)cc1F)c1cc(NC(=O)C2C(c3cc(Cl)cc(Cl)c3)[C@@H]2Cl)ccc1Cl` (stereo partly drawn) [F214, 2-Chloro-5-((2S)-2-chloro-3-(3,5-dichlorophenyl)cyclopropane-1-carboxamido)-N-(2,4-difluorophenyl)benzamide], the pest or weed control at 50 µg/cm2 in assay [1] (setting [4]) and in assay [2] (setting [5]) was 50 to 100% each time. Also, the “YFM (Biological Results, rating)” value in assay [3] is listed as “B (More than 0-Less than 80)”.

Consider `O=C(Nc1ccc(F)cc1)c1cc(NC(=O)C2C(c3cc(Cl)cc(Cl)c3)[C@H]2Cl)ccc1Cl` (stereo partly drawn) [F213, 2-Chloro-5-((2R)-2-chloro-3-(3,5-dichlorophenyl)cyclopropane-1-carboxamido)-N-(4-fluorophenyl)benzamide], for which the pest or weed control at 50 µg/cm2 in assay [1] (setting [4]) and in assay [2] (setting [5]) was 50 to 100% in each case. Also, the “YFM (Biological Results, rating)” value in assay [3] is given as “A (80-100)”.

For the compound `Cc1ccc2c(NC(=O)c3cc(NC(=O)[C@H]4[C@H](c5cc(Cl)cc(Cl)c5)C4(Cl)Cl)ccc3Cl)n[nH]c2c1` (relative stereo) [F478, 2-Chloro-5-(trans)-(2,2-dichloro-3-(3,5-dichlorophenyl)cyclopropane-1-carboxamido)-N-(6-methyl-1H-indazol-3-yl)benzamide], the pest or weed control at 50 µg/cm2 in assay [1] (setting [6]) and in assay [2] (setting [7]) was 50 to 100% throughout. For the same compound, the YFM rating result in assay [3] is reported as “A (80-100)”.

`Cc1cc(NC(=O)OC(C)(C)C)ccc1NC(=O)c1cccc(NC(=O)[C@H]2[C@H](c3cc(Cl)cc(Cl)c3)C2(Cl)Cl)c1` (relative stereo) [F263, trans-tert-Butyl (4-(3-(2,2-dichloro-3-(3,5-dichlorophenyl)cyclopropane-1-carboxamido)benzamido)-3-methylphenyl)carbamate]: the pest or weed control at 50 µg/cm2 in assay [1] (setting [4]) and in assay [2] (setting [5]) was 50 to 100% each time. Besides, in assay [3], the “YFM (Biological Results, rating)” value is on record as “B (More than 0-Less than 80)”.

As to `Cc1cc(N)ccc1NC(=O)c1cc(NC(=O)[C@H]2[C@H](c3cc(Cl)cc(Cl)c3)C2(Cl)Cl)ccc1Cl` [F283, N-(4-Amino-2-methylphenyl)-2-chloro-5-((1R,3R)-2,2-dichloro-3-(3,5-dichlorophenyl)cyclopropane-1-carboxamido)benzamide], the pest or weed control at 50 µg/cm2 in assay [1] (setting [4]) and in assay [2] (setting [5]) was 50 to 100% each time. Moreover, the “YFM (Biological Results, rating)” value in assay [3] is on record as “A (80-100)”.

Turning to `O=C(Nc1ccc(Cl)cn1)c1cc(NC(=O)[C@H]2[C@H](c3cc(Cl)cc(Cl)c3)C2(Cl)Cl)ccc1Cl` (relative stereo) [PF141, trans-2-Chloro-N-(5-chloropyridin-2-yl)-5-(2,2-dichloro-3-(3,5-dichlorophenyl)cyclopropane-1-carboxamido)benzamide], the pest or weed control at 50 µg/cm2 in assay [1] (setting [6]) and in assay [2] (setting [7]) was 50 to 100% in each case. In assay [3], the YFM rating result was “B (More than 0-Less than 80)”.

For the compound `O=C(Nc1ncc(F)cc1F)c1cc(NC(=O)[C@H]2[C@H](c3ccc(F)c(C(F)F)c3)C2(Cl)Cl)ccc1Cl` (relative stereo) [F587, 2-Chloro-5-(trans-2,2-dichloro-3-(3-(difluoromethyl)-4-fluorophenyl)cyclopropane-1-carboxamido)-N-(3,5-difluoropyridin-2-yl)benzamide], the pest or weed control at 50 µg/cm2 in assay [1] (setting [6]) and in assay [2] (setting [7]) was 50 to 100% each time. In assay [3], the YFM rating result is reported as “A (80-100)”.

As for `Nc1ccc2c(c1)CN(C(=O)c1cc(NC(=O)[C@H]3[C@H](c4cc(Cl)cc(Cl)c4)C3(Cl)Cl)ccc1Cl)C2` (relative stereo) [F479, (trans)-N-(3-(5-Aminoisoindoline-2-carbonyl)-4-chlorophenyl)-2,2-dichloro-3-(3,5-dichlorophenyl)cyclopropane-1-carboxamide], the pest or weed control at 50 µg/cm2 in assay [1] (setting [6]) and in assay [2] (setting [7]) was 50 to 100% throughout. In assay [3], the YFM rating entry was “A (80-100)”.

Turning to `O=C(Nc1ncc(I)cc1F)c1cc(NC(=O)[C@H]2[C@H](c3cc(Cl)cc(Cl)c3)C2(Cl)Cl)ccc1Cl` (relative stereo) [F312, 2-Chloro-5-(trans)-(2,2-dichloro-3-(3,5-dichlorophenyl)cyclopropane-1-carboxamido)-N-(3-fluoro-5-iodopyridin-2-yl)benzamide], the pest or weed control at 50 µg/cm2 in assay [1] (setting [4]) and in assay [2] (setting [5]) was 50 to 100% throughout. In addition, in assay [3], the “YFM (Biological Results, rating)” value is recorded as “A (80-100)”.

Turning to `Cn1nc(NC(=O)c2cc(NC(=O)[C@H]3[C@H](c4cc(Cl)cc(Cl)c4)C3(Cl)Cl)ccc2Cl)c2cc(C(F)(F)F)ccc21` (relative stereo) [F460, 2-Chloro-5-(trans)-(2,2-dichloro-3-(3,5-dichlorophenyl)cyclopropane-1-carboxamido)-N-(1-methyl-5-(trifluoromethyl)-1H-indazol-3-yl)benzamide], the pest or weed control at 50 µg/cm2 in assay [1] (setting [6]) and in assay [2] (setting [7]) was 50 to 100% in each case. In assay [3], the YFM rating entry is on record as “A (80-100)”.

In the case of `Nc1c(F)cnc(NC(=O)c2cc(NC(=O)[C@H]3[C@H](c4ccc(Cl)c(Cl)c4)C3(Cl)Cl)ccc2Cl)c1F` [F371, N-(4-Amino-3,5-difluoropyridin-2-yl)-2-chloro-5-((1R,3R)-2,2-dichloro-3-(3,4-dichlorophenyl)cyclopropane-1-carboxamido)benzamide], the pest or weed control at 50 µg/cm2 in assay [1] (setting [4]) and in assay [2] (setting [5]) was 50 to 100% throughout. In addition, in assay [3], the “YFM (Biological Results, rating)” value is listed as “A (80-100)”.

Regarding `Nc1ccc(F)c(NC(=O)c2cc(NC(=O)[C@H]3[C@H](c4ccc(F)c(Cl)c4)C3(Cl)Cl)ccc2Cl)c1` [F430, N-(5-Amino-2-fluorophenyl)-2-chloro-5-((1R,3R)-2,2-dichloro-3-(3-chloro-4-fluorophenyl)cyclopropane-1-carboxamido)benzamide], the pest or weed control at 50 µg/cm2 in assay [1] (setting [6]) and in assay [2] (setting [7]) was 50 to 100% throughout. Moreover, the YFM rating result in assay [3] is on record as “A (80-100)”.

As for `O=C(Nc1ccc2cc[nH]c2c1)c1cc(NC(=O)C2C(c3cc(Cl)cc(Cl)c3)C2(Cl)Cl)ccc1Cl` (stereo not drawn) [PF126, 2-Chloro-5-(trans)-2,2-dichloro-3-(3,5-dichlorophenyl)cyclopropane-1-carboxamido)-N-(1H-indol-6-yl)benzamide], the pest or weed control at 50 µg/cm2 in assay [1] (setting [6]) and in assay [2] (setting [7]) was 50 to 100% each time. The YFM rating result in assay [3] was “A (80-100)”.

In the case of `N#Cc1cc(F)ccc1NC(=O)c1cc(NC(=O)[C@H]2[C@H](c3cc(C(F)(F)F)cc(C(F)(F)F)c3)C2(Cl)Cl)ccc1Cl` (relative stereo) [F308, trans-5-(3-(3,5-bis(Trifluoromethyl)phenyl)-2,2-dichlorocyclopropane-1-carboxamido)-2-chloro-N-(2-cyano-4-fluorophenyl)benzamide], the pest or weed control at 50 µg/cm2 in assay [1] (setting [4]) and in assay [2] (setting [5]) was 50 to 100% in each case. Further, the “YFM (Biological Results, rating)” value in assay [3] is reported as “A (80-100)”.

On to `Nc1c(F)ccc(NC(=O)c2cc(NC(=O)[C@H]3[C@H](c4cc(Cl)cc(Br)c4)C3(Cl)Cl)ccc2Cl)c1F` (relative stereo) [F339, N-(3-Amino-2,4-difluorophenyl)-5-(trans-3-(3-bromo-5-chlorophenyl)-2,2-dichlorocyclopropane-1-carboxamido)-2-chlorobenzamide], for which the pest or weed control at 50 µg/cm2 in assay [1] (setting [4]) and in assay [2] (setting [5]) was 50 to 100% each time. Besides, the “YFM (Biological Results, rating)” value in assay [3] is “A (80-100)”.
